Data as given in PMC8119212 (JCI Insight, 2021).
Entries after “also recorded” stand apart in the source; their conditions may differ.

Experiments:
[1] = target: ALK2 (WT) GS and kinase domain (Homo sapiens, UniProt Q04771); experiment: DSF thermal shift, wild-type ALK2; assay type: binding
[2] = tested on: ACVR1^Q207D-transgenic mouse (CAG-Z-eGFP-caALK2-Tg); experiment: ACVR1^Q207D-Tg mouse model of heterotopic ossification; conditions: for mobility (passive range of motion): 6 mg/kg intraperitoneally twice daily, not shown
Description: In these animals, activation of the ACVR1^Q207D transgene and associated GFP reporter is mediated by a single intramuscular injection of Adenovirus expressing Cre recombinase (Ad.Cre) in the left hindlimb on P7. This induces the expression of the human ACVR1^Q207D transgene, as well as muscle necrosis and inflammation, which together result in the formation of heterotopic bone lesions within 7–10 days following Ad.Cre injection ([16]). This model is believed to recapitulate aspects of clinical HO and FOP, in which muscle injury and inflammation potentiate the formation of heterotopic bone in soft tissues.
(D) Representative hindlimb scoring system. All range of motion scoring was performed by 2 separate operators who were blinded to the treatment condition of the animal.
Mice were maintained in accordance with IACUC guidelines under approved experimental protocols. Cre-inducible ACVR1^Q207D (CAG-Z-eGFP-caACVR1-Tg) transgenic mice were a gift from Yuji Michina (University of Michigan, Ann Arbor, Michigan, USA) as previously described ([31]). Acvr1^[R206H]FlEx/+ mice were generated as previously described ([13]). Heterotopic bone formation in these mice was introduced via single retro-popliteal injection of adenoviral Cre-recombinase at 1 × 10^8 PFU at P7. […] Bone formation as a function of a loss of passive range of motion, via dorsiflexion of the left ankle joint was assessed daily. Scores were assessed by 2 independent observers blinded to genotype and treatment. […] To monitor the progression of HO during the in vivo studies, x-ray radiographs were also imaged at various time points. Mice were anesthetized using ketamine at 100 mg/kg and imaged nonterminally in the prone position with tibial lateralization and hip abduction, allowing for reproducible positioning. Radiographs were obtained using 30-second scans and 50 kV exposures (MS FX In Vivo Pro: Carestream Imaging). […] After reconstruction, regions of interest were chosen and exported into DICOM format, and analyzed by Osirix analysis software. Fixed soft tissues and bone were stained with alizarin red and Alcian blue as previously described ([62]).

RIPK2 = RIPK2 (Homo sapiens, UniProt O43353); experiment: Caliper kinase profiling (Nanosyn), RIPK2; assay type: biochemical
RIPK2, sequence (O43353 whole entry): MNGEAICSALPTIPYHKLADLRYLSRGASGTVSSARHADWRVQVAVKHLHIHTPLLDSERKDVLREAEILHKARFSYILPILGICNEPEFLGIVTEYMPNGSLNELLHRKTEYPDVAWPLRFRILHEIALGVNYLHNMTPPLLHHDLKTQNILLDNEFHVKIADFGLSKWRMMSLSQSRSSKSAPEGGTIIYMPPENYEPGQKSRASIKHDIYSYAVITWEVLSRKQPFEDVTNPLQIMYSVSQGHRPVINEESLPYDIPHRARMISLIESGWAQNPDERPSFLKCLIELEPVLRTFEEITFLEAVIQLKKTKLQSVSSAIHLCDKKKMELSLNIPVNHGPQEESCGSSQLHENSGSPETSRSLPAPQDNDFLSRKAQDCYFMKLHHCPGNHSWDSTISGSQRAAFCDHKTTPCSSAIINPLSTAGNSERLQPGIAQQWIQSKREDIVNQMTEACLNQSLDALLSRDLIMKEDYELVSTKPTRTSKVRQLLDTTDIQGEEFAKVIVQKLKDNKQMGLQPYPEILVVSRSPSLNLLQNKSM

TNIK = TNIK (Homo sapiens, UniProt Q9UKE5); experiment: Caliper kinase profiling (Nanosyn), TNIK; assay type: biochemical
TNIK, sequence (Q9UKE5 whole entry): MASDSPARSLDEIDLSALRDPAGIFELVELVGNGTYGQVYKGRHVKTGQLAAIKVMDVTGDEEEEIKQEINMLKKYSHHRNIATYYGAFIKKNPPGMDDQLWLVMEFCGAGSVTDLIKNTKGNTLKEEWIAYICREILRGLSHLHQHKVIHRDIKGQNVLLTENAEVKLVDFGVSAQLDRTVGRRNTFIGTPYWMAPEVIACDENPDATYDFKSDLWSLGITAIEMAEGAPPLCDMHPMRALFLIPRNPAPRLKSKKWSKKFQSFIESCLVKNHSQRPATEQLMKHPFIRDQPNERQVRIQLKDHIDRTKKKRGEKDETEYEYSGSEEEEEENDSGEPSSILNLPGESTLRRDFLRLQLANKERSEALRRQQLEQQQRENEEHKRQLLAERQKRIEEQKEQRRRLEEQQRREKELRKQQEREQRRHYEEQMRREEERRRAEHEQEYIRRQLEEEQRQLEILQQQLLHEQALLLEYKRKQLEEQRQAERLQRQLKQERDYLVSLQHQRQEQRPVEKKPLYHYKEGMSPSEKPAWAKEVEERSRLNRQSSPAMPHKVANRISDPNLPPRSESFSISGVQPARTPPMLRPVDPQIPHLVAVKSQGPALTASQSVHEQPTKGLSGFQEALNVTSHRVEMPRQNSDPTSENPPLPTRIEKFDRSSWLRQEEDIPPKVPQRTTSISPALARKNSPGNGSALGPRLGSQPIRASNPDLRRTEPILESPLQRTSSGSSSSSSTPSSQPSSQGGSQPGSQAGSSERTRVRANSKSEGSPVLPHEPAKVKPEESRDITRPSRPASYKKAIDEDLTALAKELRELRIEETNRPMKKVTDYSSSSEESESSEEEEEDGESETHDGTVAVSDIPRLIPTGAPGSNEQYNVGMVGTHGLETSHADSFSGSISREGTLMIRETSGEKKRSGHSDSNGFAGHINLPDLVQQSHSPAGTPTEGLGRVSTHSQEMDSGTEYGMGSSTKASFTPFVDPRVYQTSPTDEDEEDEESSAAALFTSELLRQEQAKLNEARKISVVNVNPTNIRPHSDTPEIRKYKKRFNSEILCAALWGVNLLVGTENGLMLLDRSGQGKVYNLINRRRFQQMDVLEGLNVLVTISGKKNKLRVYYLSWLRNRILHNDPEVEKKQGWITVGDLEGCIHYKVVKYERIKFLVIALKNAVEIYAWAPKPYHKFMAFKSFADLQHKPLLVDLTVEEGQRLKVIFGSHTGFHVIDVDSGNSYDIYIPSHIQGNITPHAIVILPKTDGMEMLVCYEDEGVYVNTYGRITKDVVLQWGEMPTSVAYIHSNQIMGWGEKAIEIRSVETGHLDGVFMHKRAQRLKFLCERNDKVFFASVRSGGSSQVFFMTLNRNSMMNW

ARG (ABL2) = ARG (ABL2) (Homo sapiens, UniProt P42684); experiment: Caliper kinase profiling (Nanosyn), ARG; assay type: biochemical
ARG (ABL2), sequence (P42684 whole entry): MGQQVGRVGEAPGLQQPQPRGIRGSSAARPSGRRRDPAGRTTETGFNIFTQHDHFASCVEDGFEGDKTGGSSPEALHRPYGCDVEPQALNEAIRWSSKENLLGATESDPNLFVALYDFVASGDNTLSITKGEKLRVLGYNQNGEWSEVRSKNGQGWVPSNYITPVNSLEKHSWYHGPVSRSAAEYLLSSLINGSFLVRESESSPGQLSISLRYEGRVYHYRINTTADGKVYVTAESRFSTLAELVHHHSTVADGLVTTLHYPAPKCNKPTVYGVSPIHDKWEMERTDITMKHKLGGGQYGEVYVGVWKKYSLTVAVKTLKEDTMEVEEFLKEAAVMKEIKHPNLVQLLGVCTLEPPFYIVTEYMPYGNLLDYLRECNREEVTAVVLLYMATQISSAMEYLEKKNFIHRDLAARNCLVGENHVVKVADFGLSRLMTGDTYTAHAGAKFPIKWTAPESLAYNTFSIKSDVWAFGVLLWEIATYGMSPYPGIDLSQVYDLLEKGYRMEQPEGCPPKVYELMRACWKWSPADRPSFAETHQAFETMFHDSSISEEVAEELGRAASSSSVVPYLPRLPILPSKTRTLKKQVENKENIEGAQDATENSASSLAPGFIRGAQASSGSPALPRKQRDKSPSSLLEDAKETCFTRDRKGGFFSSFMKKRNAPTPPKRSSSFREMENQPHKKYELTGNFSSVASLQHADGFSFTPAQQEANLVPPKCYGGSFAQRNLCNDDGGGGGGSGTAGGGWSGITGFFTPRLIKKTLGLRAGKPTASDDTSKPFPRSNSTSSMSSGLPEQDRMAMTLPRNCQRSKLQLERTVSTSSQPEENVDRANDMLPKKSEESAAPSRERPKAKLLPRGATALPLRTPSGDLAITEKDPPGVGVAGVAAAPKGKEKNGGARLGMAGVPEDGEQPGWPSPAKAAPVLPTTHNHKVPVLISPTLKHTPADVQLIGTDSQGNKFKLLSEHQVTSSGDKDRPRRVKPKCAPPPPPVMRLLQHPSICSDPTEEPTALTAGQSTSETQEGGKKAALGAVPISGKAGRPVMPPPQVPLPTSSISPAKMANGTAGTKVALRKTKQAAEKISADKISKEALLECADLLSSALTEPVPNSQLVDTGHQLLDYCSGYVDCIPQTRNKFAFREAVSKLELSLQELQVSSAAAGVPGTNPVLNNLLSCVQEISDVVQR

HCK = HCK (Homo sapiens, UniProt P08631); experiment: Caliper kinase profiling (Nanosyn), HCK; assay type: biochemical
HCK, sequence (P08631 whole entry): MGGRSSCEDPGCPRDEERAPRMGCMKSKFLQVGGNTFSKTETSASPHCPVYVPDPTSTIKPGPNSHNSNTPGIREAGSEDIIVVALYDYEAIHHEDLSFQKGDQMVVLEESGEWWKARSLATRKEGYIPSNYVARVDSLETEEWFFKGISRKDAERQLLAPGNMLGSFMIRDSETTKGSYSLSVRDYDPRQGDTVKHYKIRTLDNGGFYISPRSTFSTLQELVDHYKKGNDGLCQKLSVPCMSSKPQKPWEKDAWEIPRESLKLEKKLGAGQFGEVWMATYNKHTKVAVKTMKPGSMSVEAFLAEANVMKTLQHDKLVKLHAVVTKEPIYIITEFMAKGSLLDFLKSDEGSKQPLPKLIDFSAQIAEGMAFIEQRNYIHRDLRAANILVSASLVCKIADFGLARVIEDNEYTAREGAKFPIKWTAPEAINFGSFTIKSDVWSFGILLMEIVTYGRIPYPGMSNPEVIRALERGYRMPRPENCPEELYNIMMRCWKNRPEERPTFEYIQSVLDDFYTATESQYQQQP

LYN = LYN (Homo sapiens, UniProt P07948); experiment: Caliper kinase profiling (Nanosyn), LYN; assay type: biochemical
LYN, sequence (P07948 whole entry, the tested form may be a part): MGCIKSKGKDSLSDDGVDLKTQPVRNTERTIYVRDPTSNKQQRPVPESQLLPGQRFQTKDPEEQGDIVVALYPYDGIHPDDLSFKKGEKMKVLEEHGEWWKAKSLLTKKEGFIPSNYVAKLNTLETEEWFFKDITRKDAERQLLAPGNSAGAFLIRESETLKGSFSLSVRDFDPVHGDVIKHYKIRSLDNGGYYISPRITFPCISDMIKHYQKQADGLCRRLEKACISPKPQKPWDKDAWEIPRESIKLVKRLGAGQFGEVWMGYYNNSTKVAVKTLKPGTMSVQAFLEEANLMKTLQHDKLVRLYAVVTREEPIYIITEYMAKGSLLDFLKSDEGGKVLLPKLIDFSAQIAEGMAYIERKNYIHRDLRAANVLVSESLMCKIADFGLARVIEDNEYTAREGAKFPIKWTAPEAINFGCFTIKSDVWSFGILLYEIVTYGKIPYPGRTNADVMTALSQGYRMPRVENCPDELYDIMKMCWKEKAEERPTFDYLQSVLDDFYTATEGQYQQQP

[3] = target: T1, recombinant ALK1 kinase domain (Homo sapiens, UniProt P37023); experiment: LANCE Ultra TR-FRET kinase assay, ALK1; assay type: biochemical; conditions: 10 nM kinase, 50 μM peptide substrate, 10 μM ATP
T1 construct: purified recombinant ALK1-6 kinase domains; purchased Life Technology PV4883
T1 sequence (P37023 202-492 limits assumed): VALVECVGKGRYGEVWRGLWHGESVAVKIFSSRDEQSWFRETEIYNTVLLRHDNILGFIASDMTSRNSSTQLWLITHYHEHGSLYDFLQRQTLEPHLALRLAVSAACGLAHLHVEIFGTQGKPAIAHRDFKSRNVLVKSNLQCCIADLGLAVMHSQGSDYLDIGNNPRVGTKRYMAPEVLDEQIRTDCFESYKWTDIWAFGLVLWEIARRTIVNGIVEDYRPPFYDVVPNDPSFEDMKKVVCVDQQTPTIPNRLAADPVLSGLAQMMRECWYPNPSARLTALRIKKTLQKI
Description: (§1) Data shown are plotted as mean ± SD. (n = 3 independent replicates). […] (n = 3 replicates). […] Data shown are plotted as mean ± SD. (n ≥ 3 independent replicates).
(§2) Recombinant ALK1 was obtained from Life Technology (catalog PV4883). Recombinant ALK2 to ALK6 were purchased from Carna Bioscience (catalog 09-134). A LANCE Ultra TR-FRET kinase assay was used for measurements of enzyme activities that included a ULight-labeled (Thr-1342) peptide substrate (catalog TRF0130-M, PerkinElmer) and a Europium-labeled anti-phospho peptide antibody (catalog TRF0218-M). The kinase reaction was carried out in a buffer containing 10 mM MgCl2, 3 mM MnCl2, 0.005% Tween-20, 2 mM DTT, and 50 mM HEPES, pH 7.0. The details of the enzyme assays will be reported in a separate paper (our unpublished observations). Briefly, 2.5 μL/well kinase protein (10 nM final) was dispensed to a white solid 1536-well plate followed by addition of 23 nL/well compound diluted in DMSO using a Pin-tool station (Wako-Kalypsis). After a 10-minute incubation at room temperature, 2.5 μL/well substrate solution (50 μM peptide and 10 μM ATP, final) was added, and the assay plate was incubated for 60 minutes at room temperature. […] The signals of time-resolved fluorescence resonance energy transfer (TR-FRET) assay were measured in an Envision plate reader (PerkinElmer) with a TR-FRET mode (Ex = 320, Em1 = 665, and Em2 = 615 nm).

[4] = target: T2, recombinant ALK3 kinase domain (Homo sapiens, UniProt P36894); experiment: LANCE Ultra TR-FRET kinase assay, ALK3; assay type: biochemical; conditions: 10 nM kinase, 50 μM peptide substrate, 10 μM ATP
T2 construct: purified recombinant ALK1-6 kinase domains; purchased Carna Bioscience 09-134
Description: as §1, §2

[5] = target: T3, recombinant ALK4 kinase domain (Homo sapiens, UniProt P36896); experiment: LANCE Ultra TR-FRET kinase assay, ALK4; assay type: biochemical; conditions: 10 nM kinase, 50 μM peptide substrate, 10 μM ATP
T3 construct: purified recombinant ALK1-6 kinase domains; purchased Carna Bioscience 09-134
T3 sequence (P36896 207-497 limits assumed): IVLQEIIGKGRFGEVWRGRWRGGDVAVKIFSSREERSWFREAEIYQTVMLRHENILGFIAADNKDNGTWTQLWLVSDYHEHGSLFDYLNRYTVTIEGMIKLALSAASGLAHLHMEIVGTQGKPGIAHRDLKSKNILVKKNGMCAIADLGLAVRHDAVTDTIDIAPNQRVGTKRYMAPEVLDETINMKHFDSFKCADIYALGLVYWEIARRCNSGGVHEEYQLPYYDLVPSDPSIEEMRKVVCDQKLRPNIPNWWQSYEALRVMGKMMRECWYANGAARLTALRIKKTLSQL

[6] = target: T4, recombinant ALK5 kinase domain (Homo sapiens, UniProt P36897); experiment: LANCE Ultra TR-FRET kinase assay, ALK5; assay type: biochemical; conditions: 10 nM kinase, 50 μM peptide substrate, 10 μM ATP
T4 construct: purified recombinant ALK1-6 kinase domains; purchased Carna Bioscience 09-134

[7] = target: T5, recombinant ALK6 kinase domain (Homo sapiens, UniProt O00238); experiment: LANCE Ultra TR-FRET kinase assay, ALK6; assay type: biochemical; conditions: 10 nM kinase, 50 μM peptide substrate, 10 μM ATP
T5 construct: purified recombinant ALK1-6 kinase domains; purchased Carna Bioscience 09-134
Description: as §1, §2

BMP2 signaling = experiment: cells; conditions: Homo sapiens, MDA-MB-231
Description: (§3) Reactions contained 10 nM kinase, 50 μM peptide substrate, and 10 μM ATP. Data shown are plotted as mean ± SD. (n = 3 independent replicates). […] Data shown are representative of more than 3 independent experiments, with data plotted as mean ±SEM. (n = 3 replicates). […] Data shown are plotted as mean ± SD. (n ≥ 3 independent replicates).
(§4) For subsequent investigations of ligand-dependent receptor signaling we used MDA-MB-231 cells stably expressing either the BRE-Luc or CAGA-Luc construct.
(§5) MDA-MB-231 cells stably expressing BRE-Luc or CAGA-Luc were generously provided by Caroline Hill (Francis Crick Institute). […] LUC activity was measured using the Promega Dual LUC Reporter Assay system and percentage activity determined compared with cells treated with growth factor and no inhibitor. Growth factors (Peprotech) were used at the following concentrations: 500 ng/mL BMP2, 10 ng/mL BMP4, 500 ng/mL BMP6, 500 ng/mL BMP7, 4 ng/mL TGF-β, and 200 ng/mL activin A. Experiments were repeated at least 3 times and plotted as mean ± SD.

BMP4 signaling = experiment: cells; conditions: Homo sapiens, MDA-MB-231
Description: as §3, §4, §5

BMP6 signaling = experiment: cells; conditions: Homo sapiens, MDA-MB-231
Description: as §3, §4, §5

BMP7 signaling = experiment: cells; conditions: Homo sapiens, MDA-MB-231
Description: as §3, §4, §5

activin A signaling = experiment: cells; conditions: Homo sapiens, MDA-MB-231
Description: as §3, §4, §5

C2C12 cells = conditions: mouse
Description: (§6) Inhibition of the BMP receptors caALK1, caALK2, and caALK3 was assessed via the activity of a BMP-response element LUC reporter (BRE-Luc) stably expressed in the C2C12 cell line, whereas the activin (caALK4) and TGF-β (caALK5) receptors were profiled via a CAGA-Luc reporter construct stably expressed in HEK293 cells (Figure 2B). […] Cell viability was assayed with an MTT (3-[4,5-dimethylthiazol-2-yl]-2,5-diphenyl tetrazolium bromide) colorimetric assay (Promega) per the manufacturer’s instructions.
(§7) lines was determined using the MTT cell viability assay . Data were plotted as mean + S.E.M. and
(§8) (1 picture or pasted object on this page, not shown here)

HEK293 cells = conditions: human
Description: as §6, §7, §8

zebrafish embryos = experiment: Zebrafish embryo dorsalization; assay type: in vivo; conditions: incubation starting at 0.5 hours after fertilization
Description: Dorsoventral axis specification during embryogenesis is regulated by the activity of BMP signaling agonists and antagonists ([30]).
Zebrafish embryos were treated with varying inhibitor concentrations from less than or equal to 0.5 hours after fertilization. Inhibitor stocks (20 mM) were diluted in fish water from DMSO. Embryos were scored according to Mullins et al. ([61]).

[8] = tested on: TGF-β–dependent phosphorylation of SMAD2; conditions: C2C12 cells; Western blot
TGF-β signaling = experiment: cells; conditions: Homo sapiens, MDA-MB-231
[9] = cited from earlier work
[10] = tested on: BMP7-induced phosphorylation of SMAD1/5; experiment: Western blot, BMP7-induced phospho-SMAD1/5 in C2C12 cells; conditions: 100 nM saracatinib

ALK2 (WT) GS and kinase domain, sequence (Q04771 172-499): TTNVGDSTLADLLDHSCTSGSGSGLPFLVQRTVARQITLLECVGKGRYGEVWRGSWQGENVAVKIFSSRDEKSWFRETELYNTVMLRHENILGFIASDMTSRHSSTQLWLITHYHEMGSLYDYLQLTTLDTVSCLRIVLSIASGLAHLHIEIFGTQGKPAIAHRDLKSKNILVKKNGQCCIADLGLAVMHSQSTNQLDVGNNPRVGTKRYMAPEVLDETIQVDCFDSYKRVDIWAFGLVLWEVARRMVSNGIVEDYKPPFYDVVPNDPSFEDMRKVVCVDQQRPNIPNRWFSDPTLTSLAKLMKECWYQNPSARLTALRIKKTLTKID

For `COc1cc(N2CCC(N3CCN(C)CC3)CC2)ccc1Nc1ncnc(Nc2ccccc2S(=O)(=O)C(C)C)n1` [ASP3026], the “ΔTm (thermal shift)” value ([1]; ALK2 WT, 2 μM protein, 12.5 μM compound) was 10.7 °C.
For `c1ccc2c(-c3cnn4cc(-c5ccc(N6CCNCC6)cc5)cnc34)ccnc2c1` [LDN-193189], the “mobility (passive range of motion)” value [2] was “almost entirely preserved”.
For `c1cc(-c2cnn3cc(-c4ccc(N5CCNCC5)cc4)cnc23)c2cccnc2c1` [LDN-212854], the “weight loss relative to vehicle-treated animals” value ([2]; 6 mg/kg i.p. twice daily) was 10%–25% and the “mobility (passive range of motion)” value [2] was “almost entirely preserved”.
For `CN1CCN(CCOc2cc(OC3CCOCC3)c3c(Nc4c(Cl)ccc5c4OCO5)ncnc3c2)CC1` [saracatinib], the inhibition at 0.1 µM (RIPK2) was > 50%, the inhibition at 0.1 µM (TNIK) was > 50% and the inhibition at 0.1 µM (ARG (ABL2)) was > 50%. For the same molecule, the inhibition at 0.1 µM (HCK) was > 50%, the inhibition at 0.1 µM (LYN) was > 50% and the IC50 [3] was 19 nM. It also gave an IC50 [4] of 621 nM, an IC50 [5] of 3900 nM and an IC50 [6] of 6890 nM. The IC50 [7] was 6130 nM, the IC50 (BMP2 signaling) was 61 nM and the IC50 (BMP4 signaling) was 131 nM. For the same molecule, the IC50 (BMP6 signaling) was 8.9 nM, the IC50 (BMP7 signaling) was 5.5 nM and the IC50 (activin A signaling) was 72 nM. The “concentration up to which well tolerated” value (C2C12 cells) was “approximately 40 μM”, the “concentration up to which well tolerated” value (HEK293 cells) was “approximately 40 μM” and the “cyclopia or mesoderm specification phenotypes” value (zebrafish embryos) was “no evidence of cyclopia or phenotypes suggesting inhibition of mesoderm specification”. The dorsalization phenotype (zebrafish embryos) was “dorsalized phenotype that increased in severity in a dose-dependent manner”, the “inhibitor concentration at which TGF-β–dependent phosphorylation of SMAD2 was blocked” value [8] was 5 µM and the IC50 (TGF-β signaling) was 305 nM. The t1/2 [9] was “approximately 40 hours”, the primary side effect ([9]; doses up to 125 mg daily for 9–12 months, phase II) was “gastrointestinal discomfort” and the “daily dose up to which safe” value ([9]; healthy volunteers) was ≤ 250 mg. The “adverse effects associated with higher doses” value ([9]; previous oncology trials, higher doses) was “neutropenia and thrombocytopenia” and the “BMP7-induced phosphorylation of SMAD1/5” value [10] was “completely inhibited”.
With `COc1cc2c(Nc3ccc(Br)cc3F)ncnc2cc1OCC1CCN(C)CC1` [vandetanib] the “binding to ALK2 (in words)” value ([1]; Supplemental Figure 1C) was “does not show any notable binding to ALK2” and the “HO formation / range of motion” value ([2]; 25 mg/kg i.p. twice daily for 28 days) was “no evidence of improvement in radiographic HO or range-of motion; also recorded: did not block HO formation”.
